Data: PMC11475281, “A Novel Liver Cancer-Selective Histone Deacetylase Inhibitor Is Effective against Hepatocellular Carcinoma and Induces Durable Responses with Immunotherapy” (ACS Pharmacology & Translational Science, 2024)
Like-named read-outs stand apart in the source and are kept apart here.

Tests used:
Hep-G2 cells [1] = experiment: Immunoblotting of acetylated histone H4 and α-tubulin; format: cell-based, human; settings: for Acetylation status of histone H4 and α-tubulin: at 1/4 IC50 and 1/2 IC50
Excerpt: To determine the contributions of HDAC inhibition to the antiproliferative activities of the glycosylated HDACi compounds, immunoblotting was used to investigate the acetylation status of histone H4 and α-tubulin, biomarkers for HDAC class I and class IIb intracellular inhibition, respectively,[27] in Hep-G2 cells in response to exposure to representative compounds STR-V-53, STR-V-114, and STR-I-195. We used SAHA as a positive control for HDAC inhibition and GAPDH level as a protein loading control.
(§1) Figure 3 Effects of STR-V-53 on intracellular markers of HDAC inhibition, antitumor immune response, and apoptosis. (a) STR-V-53 upregulates the levels of acetylated H4 and tubulin in Hep-G2 cells. Hep-G2 cells were treated with DMSO or 0.1% DMSO solution of SAHA (1.25 μM) and STR-V-53 (1.25 μM, 2.5 μM). Cells were treated for 5 h before lysis. Data are from two independent experiments. (b) STR-V-53 upregulates PD-L1 and downregulates PD-1 expressions in Hep-G2 cells. Cells were treated with DMSO or 0.1% DMSO solution of SAHA (5 μM and 10 μM) and STR-V-53 (10 and 20 μM) for 24 h. (c) STR-V-53 and SAHA caused upregulation of the levels of CD54 in the Hep-G2 cell line. Cells were treated with DMSO or 0.1% DMSO solution of SAHA (5 and 10 μM) and STR-V-53 (5, 10, and 20 μM) for 24 h. […] Cells were treated with DMSO or 0.1% DMSO solution of SAHA (5 μM) and STR-V-53 (10 and 20 μM).
10-017-CV), supplemented with 10% fetal bovine serum (FBS) (Corning, 35-010-CV). Hep-G2 cells were cultured in phenol red-free Minimum Essential Medium (MEM) (Corning, 17-305-CV), supplemented with 10% fetal bovine serum (FBS). SK-Hep-1 in ATCC-formulated EMEM (ATCC® 30–2003™); Huh-7 in DMEM (containing 4 mM L-glutamine and 1 g/L glucose) with […]
Kupffer Cell Media (Sekisui XenoTech, LLC, Cat. #K8700). Cells were seeded into a 96-well plate (2000 counts/100uL) for 24 h prior to treatment and then treated with various drug concentrations for 72 h. All drugs were dissolved in media with DMSO concentration maintained at 1%. The effect of compounds on cell viability was measured using the MTS assay (CellTiter 96 Aqueous One Solution and CellTiter 96 Non-Radioactive Cell Proliferation Assays, Promega, Madison, WI) as described by the manufacturer. IC50s were determined using Prism GraphPad 8.
Western blot protocol was described in our previous works 24,25. In brief, Hep-G2 cells were seeded into a 6-well plate at 1*106/well in MEM for 24-48 h prior to treatment. Various concentrations of SAHA, STR-V-53, STR-V-114, and STR-I-195 solutions in DMSO were added to the cell culture such that the final DMSO level was 0.1%. Cells were treated for 24 h, washed with cold PBS, and lysed with RIPA buffer (120 µL) (VWR, VWRVN653 -100ML) containing phosphatase inhibitor (Fisher Thermo, A32957) and protease inhib itor (Fisher Thermo, A32955). The cell lysates were scraped, collected, and vortexed for 15 s, followed by sonication for 60 s. The lysate was centrifuged at 14000x rpm for 10 min, and the supernatants were collected. The total protein concentration was determined using a BCA protein assay kit (BioVision, K813-2500). Based on the results from the […], the lysates were diluted to make equal protein concentration, and 40 µg of each lysate was loaded to each wel l of the TGX […]
MIDI 4-20% gel (Biorad, cat. 5671093) and ran at 150 V for 70 min. […] After washing with TBS-T 3x5 mins, bands were quantified using the Odyssey CLx Image system. […]

HDAC8 = target: T1, HDAC8 (Homo sapiens, UniProt Q9BY41); experiment: HDAC isoform inhibition (BPS Bioscience)
T1 sequence (Q9BY41 1-377): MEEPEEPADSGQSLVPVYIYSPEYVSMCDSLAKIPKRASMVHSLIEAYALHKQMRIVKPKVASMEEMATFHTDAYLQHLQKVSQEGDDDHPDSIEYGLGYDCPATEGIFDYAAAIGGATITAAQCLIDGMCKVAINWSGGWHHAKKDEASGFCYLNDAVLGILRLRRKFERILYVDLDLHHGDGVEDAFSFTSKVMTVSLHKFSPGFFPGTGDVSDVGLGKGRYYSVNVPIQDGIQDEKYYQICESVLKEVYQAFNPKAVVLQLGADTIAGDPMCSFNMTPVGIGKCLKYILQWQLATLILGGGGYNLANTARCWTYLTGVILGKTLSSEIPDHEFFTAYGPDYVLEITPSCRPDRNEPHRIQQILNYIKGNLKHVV

Hep-G2 cells [2] = experiment: Immunoblotting of cleaved Caspase 3 and p21WAF/CIP; format: cell-based, human; settings: for Caspase 3 cleavage (cleaved Caspase 3/Pro-caspase 3): IC50 or 2× IC50 for 18 h; for p21WAF/CIP level: higher concentrations, 18 h
Protocol: as §1
HDAC inhibition could cause cell apoptosis through caspase cleavage and p21^WAF/CIP upregulation.[37] To probe if our compounds elicit a similar phenotype, we investigated the effects representative examples on the cellular levels of cleaved Caspase 3 and p21^WAF/CIP through immunoblotting.

Structure (SMILES) | Acetylation status of histone H4 and α-tubulin (Hep-G2 cells [1]) | IC50 (HDAC8; read-out: HDAC8 IC50, Table S1) [nM] | Caspase 3 cleavage (cleaved Caspase 3/Pro-caspase 3) (Hep-G2 cells [2]) | p21WAF/CIP level (Hep-G2 cells [2]) | IC50 (HDAC8) [nM] | Acetylation of H4 and α-Tubulin (Hep-G2 cells [1]; 0.5 μM) | Acetylation of H4 (Hep-G2 cells [1]; 1.25 μM and 2.5 μM) | Acetylation of α-Tubulin (Hep-G2 cells [1]; 1.25 μM and 2.5 μM)
O=C(CCCCCCn1cc(-c2ccc3cc(O[C@H]4O[C@H](CO)[C@@H](O)[C@H](O)[C@H]4O)ccc3c2)nn1)NO [STR-V-114] | induced accumulation of acetylated H4 and acetylated tubulin | 2130 |  |  |  |  |  | 
O=C(CCCCCCn1cc(-c2ccc(O[C@H]3O[C@H](CO)[C@@H](O)[C@H](O)[C@H]3O)cc2)nn1)NO [STR-V-53] | induced accumulation of acetylated H4 and acetylated tubulin |  | significant upregulation of cleave Caspase 3/Pro-caspase 3 ratio | upregulated significantly | 843 |  |  | 
O=C(CCCCCCn1cc(-c2ccc(O[C@@H]3O[C@H](CO)[C@@H](O)[C@H](O)[C@H]3O)cc2)nn1)NO [STR-I-195] |  | 464 | showed cleavage of Caspase 3 | upregulated significantly |  | did not show significant acetylation | mild acetylation | significant acetylation
O=C(CCCCCCC(=O)Nc1ccccc1)NO [SAHA, vorinostat, reference compound] |  |  | showed cleavage of Caspase 3 |  |  |  |  | 
